The target of this assay is T1, aromatase (Homo sapiens, UniProt P11511).
T1 construct: gene CYP19A1; microsomes isolated from JEG-3 human choriocarcinoma cells
T1 sequence (P11511 1-503): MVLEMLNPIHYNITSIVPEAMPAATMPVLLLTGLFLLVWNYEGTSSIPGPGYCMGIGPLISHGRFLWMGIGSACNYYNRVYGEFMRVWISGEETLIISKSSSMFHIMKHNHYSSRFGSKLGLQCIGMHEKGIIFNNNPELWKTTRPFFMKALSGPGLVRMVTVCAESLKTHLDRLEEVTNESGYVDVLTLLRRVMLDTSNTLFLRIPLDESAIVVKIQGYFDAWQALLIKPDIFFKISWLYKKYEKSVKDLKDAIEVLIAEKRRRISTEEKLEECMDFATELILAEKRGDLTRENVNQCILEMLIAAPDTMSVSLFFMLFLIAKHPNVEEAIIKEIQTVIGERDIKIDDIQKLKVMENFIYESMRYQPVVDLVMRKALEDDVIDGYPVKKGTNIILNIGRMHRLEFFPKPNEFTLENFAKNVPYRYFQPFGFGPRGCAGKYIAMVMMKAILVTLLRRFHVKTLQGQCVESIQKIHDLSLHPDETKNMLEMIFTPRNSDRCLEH
Description: 3H2O release aromatase assay in JEG-3 microsomes, Lineweaver-Burk kinetics; also intact MCF-7 cells. Type of assay: biochemical.

`CC1=C(/C=C/C(C)=C/C=C/C(C)=C/C(=O)Nc2ccc(O)cc2)C(C)(C)CCC1` [4-HPR, N-(4-hydroxyphenyl)-retinamide] gave an IC50 of 1000 nM.

As a reminder, the IC50 is the midpoint of a concentration-inhibition curve.
